Measurements reported in ChEMBL document CHEMBL1773002, “Development of imidazole alkanoic acids as mGAT3 selective GABA uptake inhibitors” (Eur J Med Chem, 2011).

How the values were obtained:
[1] = target: Sodium- and chloride-dependent GABA transporter 1 (Mus musculus, UniProt P31648); type: cell-based, HEK293
[2] = cells; type: cell-based; settings: HEK293, 3 h
[3] = target: Sodium- and chloride-dependent GABA transporter 1 (Mus musculus) (UniProt P31648); assay: Inhibition of mouse GAT1-mediated [3H]GABA uptake expressed in human HEK cells assessed as specific binding remaining at 1 mM; type: cell-based; settings: HEK293
[4] = test system: HEK293; assay: Inhibition of mouse GAT4-mediated [3H]GABA uptake expressed in human HEK cells assessed as specific binding remaining at 1 mM; type: cell-based
[5] = target: Sodium- and chloride-dependent GABA transporter 1 (Mus musculus) (UniProt P31648); assay: Inhibition of mouse GAT1-mediated [3H]GABA uptake expressed in human HEK cells assessed as specific binding remaining at 100 µM; settings: HEK293
[6] = target: T1, GABA transporter 3 (Mus musculus) (UniProt P31649); assay: Inhibition of mouse GAT2-mediated [3H]GABA uptake expressed in human HEK cells assessed as specific binding remaining at 100 µM; settings: HEK293
T1 sequence (whole entry): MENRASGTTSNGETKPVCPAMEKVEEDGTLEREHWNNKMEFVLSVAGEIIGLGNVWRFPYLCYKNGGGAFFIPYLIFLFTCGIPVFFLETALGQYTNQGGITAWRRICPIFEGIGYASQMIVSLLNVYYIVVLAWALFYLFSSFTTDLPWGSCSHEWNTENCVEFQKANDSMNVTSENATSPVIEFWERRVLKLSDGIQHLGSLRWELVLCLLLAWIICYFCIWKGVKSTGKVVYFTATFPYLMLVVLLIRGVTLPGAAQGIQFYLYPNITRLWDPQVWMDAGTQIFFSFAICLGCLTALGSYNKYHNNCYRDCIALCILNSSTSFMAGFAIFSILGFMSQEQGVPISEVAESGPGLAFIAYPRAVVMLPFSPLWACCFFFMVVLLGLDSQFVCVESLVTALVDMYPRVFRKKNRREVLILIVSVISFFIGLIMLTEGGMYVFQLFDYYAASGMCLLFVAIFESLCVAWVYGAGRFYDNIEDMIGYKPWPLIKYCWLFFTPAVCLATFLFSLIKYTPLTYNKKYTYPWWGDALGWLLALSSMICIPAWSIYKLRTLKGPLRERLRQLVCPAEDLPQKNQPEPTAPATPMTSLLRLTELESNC

[7] = target: T2, GABA transporter 4 (Mus musculus) (UniProt P31650); assay: Inhibition of mouse GAT3-mediated [3H]GABA uptake expressed in human HEK cells assessed as specific binding remaining at 100 µM; settings: HEK293
T2 sequence (whole entry): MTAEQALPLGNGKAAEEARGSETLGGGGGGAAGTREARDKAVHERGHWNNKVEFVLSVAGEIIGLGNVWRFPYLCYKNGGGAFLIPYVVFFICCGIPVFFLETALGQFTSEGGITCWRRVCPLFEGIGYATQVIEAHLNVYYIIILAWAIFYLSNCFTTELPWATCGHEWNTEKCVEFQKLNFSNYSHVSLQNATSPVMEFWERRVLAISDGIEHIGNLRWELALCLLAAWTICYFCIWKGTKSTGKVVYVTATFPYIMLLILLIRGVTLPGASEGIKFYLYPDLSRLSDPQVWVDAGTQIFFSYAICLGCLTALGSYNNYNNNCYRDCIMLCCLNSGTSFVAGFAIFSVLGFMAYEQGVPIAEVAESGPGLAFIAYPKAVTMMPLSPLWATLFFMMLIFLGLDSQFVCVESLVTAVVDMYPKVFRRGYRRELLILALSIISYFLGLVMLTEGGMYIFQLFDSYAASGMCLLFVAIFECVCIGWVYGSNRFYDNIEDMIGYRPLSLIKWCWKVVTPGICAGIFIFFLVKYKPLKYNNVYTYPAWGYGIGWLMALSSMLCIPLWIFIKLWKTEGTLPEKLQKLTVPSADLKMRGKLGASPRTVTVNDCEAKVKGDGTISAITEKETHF

[8] = test system: HEK293; assay: Inhibition of mouse GAT4-mediated [3H]GABA uptake expressed in human HEK cells assessed as specific binding remaining at 100 µM

**Q.** For `O=C(O)CCCCc1ncc[nH]1`, which IC50 ([1]; read-out: pIC50 (converted)) is on record?
**A.** Its IC50 is 724 µM.

**Q.** What about the IC50 ([2]; read-out: pIC50 (converted)) of the same compound?
**A.** The IC50 was 437 µM.

**Q.** Which IC50 ([1]; read-out: pIC50 (converted)) does the source give for `O=C(O)/C=C/CCc1ncc[nH]1` here?
**A.** Its IC50 is 324 µM.

**Q.** What about the IC50 ([2]; read-out: pIC50 (converted)) of the same compound?
**A.** Its IC50 is 309 µM.

**Q.** With `NCCCCC(=O)O` [5-AMINOVALERIC ACID] as the compound, how does the IC50 ([2]; read-out: pIC50 (converted)) read?
**A.** The IC50 was 501 µM.

**Q.** What does the source list for `O=C(O)CCn1ccnc1`?
**A.** IC50 ([2]; read-out: pIC50 (converted)): 191 µM; Activity [3]: 72%

**Q.** Which Activity [3] does the source give for `O=C(O)/C=C\c1ncc[nH]1` here?
**A.** Its Activity is 102%.

**Q.** What about the Activity [4] of the same compound?
**A.** The Activity was 93.6%.

**Q.** For `NCC(=O)O` [GLYCINE], which IC50 ([2]; read-out: pIC50 (converted)) is on record?
**A.** The IC50 was 3090 µM.

**Q.** Which IC50 ([1]; read-out: pIC50 (converted)) does the source give for `NCCC(=O)O` [BETA-ALANINE] here?
**A.** The IC50 was 2570 µM.

**Q.** What about the IC50 ([2]; read-out: pIC50 (converted)) of the same compound?
**A.** The IC50 was 34.7 µM.

**Q.** Which results are given for `O=C(O)CCCCCCn1ccnc1`?
**A.** IC50 ([1]; read-out: pIC50 (converted)): 676 µM; Activity [4]: 71.1%

**Q.** What does the source list for `O=C(O)CCCn1ccnc1`?
**A.** IC50 ([1]; read-out: pIC50 (converted)): 117 µM; IC50 ([2]; read-out: pIC50 (converted)): 38 µM

**Q.** For `O=C(O)CCCCn1ccnc1`, which IC50 ([1]; read-out: pIC50 (converted)) is on record?
**A.** The IC50 was 115 µM.

**Q.** And the IC50 ([2]; read-out: pIC50 (converted))?
**A.** Its IC50 is 224 µM.

**Q.** With `O=C(O)c1ccc2[nH]cnc2c1` as the compound, how does the Activity [5] read?
**A.** Its Activity is 108%.

**Q.** And the Activity [6]?
**A.** Its Activity is 74.2%.

**Q.** And the Activity [7]?
**A.** Its Activity is 103%.

**Q.** What about the Activity [8] of the same compound?
**A.** The Activity was 67.8%.

**Q.** Which results are given for `O=C(O)CCCc1ncc[nH]1`?
**A.** IC50 ([2]; read-out: pIC50 (converted)): 513 µM; Activity [3]: 62.3%

**Q.** With `O=C(O)c1ncc[nH]1` as the compound, how does the Activity [4] read?
**A.** The Activity was 98.6%.

**Q.** What does the source list for `O=C(O)c1cccc2[nH]cnc12`?
**A.** Activity [5]: 95.9%; Activity [6]: 94.2%; Activity [7]: 78.2%; Activity [8]: 68.2%

**Q.** Which IC50 ([2]; read-out: IC50) does the source give for `COc1ccc(C(OCCN2CCC[C@H](C(=O)O)C2)(c2ccc(OC)cc2)c2ccc(OC)cc2)cc1` here?
**A.** The IC50 was 3 µM.

**Q.** Which results are given for `O=C(O)/C=C/c1ncc[nH]1`?
**A.** Activity [3]: 73.3%; Activity [4]: 47.2%

**Q.** With `NCCCCCCC(=O)O` as the compound, how does the Activity [4] read?
**A.** Its Activity is 84.3%.

**Q.** Which IC50 ([1]; read-out: pIC50 (converted)) does the source give for `O=C(O)CCCCc1c[nH]cn1` here?
**A.** The IC50 was 417 µM.

**Q.** What about the Activity [4] of the same compound?
**A.** Its Activity is 64.7%.

**Q.** With `O=C(O)/C=C/CCc1c[nH]cn1` as the compound, how does the IC50 ([1]; read-out: pIC50 (converted)) read?
**A.** Its IC50 is 123 µM.

**Q.** What about the IC50 ([2]; read-out: pIC50 (converted)) of the same compound?
**A.** The IC50 was 209 µM.

**Q.** For `O=C(O)Cn1ccnc1`, which IC50 ([2]; read-out: pIC50 (converted)) is on record?
**A.** The IC50 was 617 µM.

**Q.** And the Activity [3]?
**A.** The Activity was 73.3%.

**Q.** For `O=C(O)C1CCc2[nH]cnc2C1` (stereo unspecified), which Activity [3] is on record?
**A.** The Activity was 85%.

**Q.** What about the Activity [4] of the same compound?
**A.** The Activity was 82.4%.

**Q.** For `O=C(O)C1CCCc2[nH]cnc21` (stereo unspecified), which Activity [3] is on record?
**A.** Its Activity is 59%.

**Q.** And the Activity [4]?
**A.** The Activity was 81.6%.

**Q.** Which results are given for `COc1ccc(C2(O)CCN(CCCn3c4ccccc4c4ccccc43)CC2)cc1`?
**A.** IC50 ([1]; read-out: IC50): 19 µM; IC50 ([2]; read-out: IC50): 15 µM

**Q.** Which Activity [3] does the source give for `O=C(O)Cc1ncc[nH]1` here?
**A.** The Activity was 75.3%.

**Q.** What about the Activity [4] of the same compound?
**A.** The Activity was 63.4%.

**Q.** Which results are given for `O=C(O)CCCCCn1ccnc1`?
**A.** IC50 ([1]; read-out: pIC50 (converted)): 1020 µM; IC50 ([2]; read-out: pIC50 (converted)): 234 µM

**Q.** Which results are given for `O=C(O)CCc1ncc[nH]1`?
**A.** IC50 ([2]; read-out: pIC50 (converted)): 309 µM; Activity [3]: 62.8%

**Q.** With `O=C(O)/C=C/c1c[nH]cn1` as the compound, how does the Activity [3] read?
**A.** Its Activity is 54.8%.

**Q.** And the Activity [4]?
**A.** Its Activity is 95.8%.

**Q.** Which IC50 ([1]; read-out: pIC50 (converted)) does the source give for `O=C(O)Cc1c[nH]cn1` [IMIDAZOLE ACETIC ACID] here?
**A.** The IC50 was 617 µM.

**Q.** What about the IC50 ([2]; read-out: pIC50 (converted)) of the same compound?
**A.** The IC50 was 46.8 µM.

**Q.** Which IC50 ([1]; read-out: pIC50 (converted)) does the source give for `O=C(O)CCCc1c[nH]cn1` here?
**A.** Its IC50 is 417 µM.

**Q.** And the IC50 ([2]; read-out: pIC50 (converted))?
**A.** Its IC50 is 52.5 µM.

**Q.** With `Cc1ccsc1C(=CCCN(C)C1CCCc2onc(O)c21)c1sccc1C` (stereo unspecified) as the compound, how does the IC50 ([1]; read-out: IC50) read?
**A.** The IC50 was 4 µM.

**Q.** What about the IC50 ([2]; read-out: IC50) of the same compound?
**A.** Its IC50 is greater than 300 µM.

**Q.** With `O=C(O)CCCCCCCn1ccnc1` as the compound, how does the Activity [3] read?
**A.** Its Activity is 68.3%.

**Q.** What about the Activity [4] of the same compound?
**A.** Its Activity is 58.6%.

**Q.** Which Activity [4] does the source give for `NCCCCCC(=O)O` here?
**A.** The Activity was 65.1%.

**Q.** With `O=C(O)CCc1c[nH]cn1` as the compound, how does the IC50 ([2]; read-out: pIC50 (converted)) read?
**A.** The IC50 was 81.3 µM.

**Q.** What about the Activity [3] of the same compound?
**A.** Its Activity is 61.7%.

**Q.** What does the source list for `O=C(O)c1c[nH]cn1`?
**A.** Activity [3]: 90.8%; Activity [4]: 85.5%
